Data taken from BigSolDB 2.1.

Nc1cccc(N)n1
Details	solubility (mole fraction)
in ethanol, 266.95 K	0.0751
in ethanol, 270.35 K	0.0853
in ethanol, 274.15 K	0.0992
in ethanol, 277.45 K	0.108
in ethanol, 281.15 K	0.123
in ethanol, 286.35 K	0.148
in ethanol, 290.15 K	0.166
in ethanol, 293.55 K	0.182
in ethanol, 297.15 K	0.204
in ethanol, 301.15 K	0.226
in ethanol, 304.55 K	0.236
in ethanol, 307.95 K	0.266
in ethanol, 312.05 K	0.282
in ethanol, 316.25 K	0.319
in ethanol, 321.25 K	0.342
in ethylbenzene, 273.25 K	0.00022
in ethylbenzene, 277.15 K	0.00026
in ethylbenzene, 282.25 K	0.00033
in ethylbenzene, 285.55 K	0.00035
in ethylbenzene, 289.45 K	0.00046
in ethylbenzene, 293.05 K	0.00049
in ethylbenzene, 298.65 K	0.00066
in ethylbenzene, 302.25 K	0.00069
in ethylbenzene, 305.35 K	0.00086
in ethylbenzene, 309.55 K	0.0009
in ethylbenzene, 313.15 K	0.00113
in ethylbenzene, 317.35 K	0.0012
in ethylbenzene, 321.25 K	0.0015
in ethylbenzene, 326.15 K	0.00164
in ethylbenzene, 329.45 K	0.00197
in ethylbenzene, 333.35 K	0.00212
in ethylbenzene, 336.95 K	0.00252
in ethylbenzene, 341.05 K	0.00288
in ethylbenzene, 346.25 K	0.0033
in ethylbenzene, 349.55 K	0.00385
in ethylbenzene, 353.05 K	0.0043
in ethylbenzene, 357.05 K	0.00474
in ethylbenzene, 361.15 K	0.00577
in isopropanol, 266.25 K	0.0222
in isopropanol, 269.95 K	0.028
in isopropanol, 274.15 K	0.0302
in isopropanol, 277.55 K	0.0379
in isopropanol, 281.15 K	0.0401
in isopropanol, 285.65 K	0.0512
in isopropanol, 290.15 K	0.0565
in isopropanol, 293.65 K	0.068
in isopropanol, 297.25 K	0.0732
in isopropanol, 301.15 K	0.0887
in isopropanol, 305.15 K	0.0976
in isopropanol, 308.25 K	0.114
in isopropanol, 311.15 K	0.12
in isopropanol, 315.85 K	0.147
in isopropanol, 319.25 K	0.159
in methanol, 266.15 K	0.0598
in methanol, 269.95 K	0.066
in methanol, 274.15 K	0.0779
in methanol, 278.05 K	0.0888
in methanol, 281.15 K	0.0933
in methanol, 285.95 K	0.111
in methanol, 290.15 K	0.125
in methanol, 297.15 K	0.15
in methanol, 301.15 K	0.165
in methanol, 304.55 K	0.178
in methanol, 307.95 K	0.188
in methanol, 311.15 K	0.207
in methanol, 317.85 K	0.233
in o-xylene, 273.35 K	0.00128
in o-xylene, 277.15 K	0.0014
in o-xylene, 282.25 K	0.00185
in o-xylene, 285.55 K	0.00201
in o-xylene, 289.45 K	0.00252
in o-xylene, 293.65 K	0.00283
in o-xylene, 297.55 K	0.00351
in o-xylene, 302.25 K	0.00395
in o-xylene, 305.35 K	0.00469
in o-xylene, 309.55 K	0.00517
in o-xylene, 314.15 K	0.0064
in o-xylene, 317.35 K	0.00695
in o-xylene, 321.25 K	0.00838
in o-xylene, 325.95 K	0.00937
in o-xylene, 329.45 K	0.011
in o-xylene, 333.35 K	0.0121
in o-xylene, 336.95 K	0.0144
in o-xylene, 341.15 K	0.0153
in o-xylene, 346.25 K	0.0194
in o-xylene, 349.55 K	0.0226
in o-xylene, 353.45 K	0.024
in o-xylene, 357.05 K	0.0292
in o-xylene, 361.05 K	0.034
in o-xylene, 361.25 K	0.0367
in toluene, 273.25 K	0.00149
in toluene, 277.15 K	0.00191
in toluene, 281.25 K	0.00214
in toluene, 285.55 K	0.0027
in toluene, 289.45 K	0.00304
in toluene, 293.65 K	0.00375
in toluene, 297.55 K	0.00417
in toluene, 301.45 K	0.0051
in toluene, 305.35 K	0.00558
in toluene, 309.55 K	0.00704
in toluene, 313.45 K	0.00733
in toluene, 317.35 K	0.00919
in toluene, 321.25 K	0.00942
in toluene, 325.55 K	0.0124
in toluene, 329.45 K	0.0127
in toluene, 333.35 K	0.0162
in toluene, 337.25 K	0.0164
in toluene, 341.15 K	0.0207
in toluene, 345.65 K	0.022
in toluene, 349.55 K	0.0277
in toluene, 353.45 K	0.0283
in toluene, 357.35 K	0.0355
